Assay results published in publication PMC10831071, “Reaction hijacking inhibition of Plasmodium falciparum asparagine tRNA synthetase” (Nature Communications, 2024).
pIC50: −log10 of the molar value. Where “and” joins values, the source holds several entries; their conditions need not be identical. Identical values can stand only once. Like-named read-outs stand apart in the source and are kept apart here.

How the values were obtained:
Assay in all cases: microbe, parasite or virus in culture
Format in all cases: cell-based, Plasmodium falciparum
[1] = test system: PfNT4 cKD P. falciparum line; conditions: for growth after 72 h exposure, normalised to no drug: PfNT4 K/D, replicates; for pIC50: PfNT4 line, individual repeats
Source text: (§1) Conditional knockdown (cKD) P. falciparum lines were generated for the cytosolic AsnRS (PF3D7_0211800), cytosolic AlaRS (PF3D7_1367700), cytosolic GlyRS (GlyRS; PF3D7_1420400), PfNT4 (PF3D7_0103200), P. falciparum glutamate dehydrogenase 3 (GDH3; PF3D7_0802000), and P. falciparum carbonic anhydrase (CA, PF3D7_1140000) by fusing the coding sequences and non-coding RNA aptamer sequences in the 3’-UTR, permitting translation regulation using the TetR-DOZI system[59],[60]. Gene editing was achieved by CRISPR/SpCas9 using the linear pSN054 vector that contains cloning sites for the left homology region (LHR) and the right homology region (RHR) as well a target-specific guide RNA under control of the T7 promoter. Cloning into the pSN054 donor vector was carried out following described procedures[59],[60]. The vector includes V5-2xHA epitope tags, a 10x tandem array of TetR aptamers upstream of an Hsp86 3’UTR, and a multicistronic cassette for expression of TetR-DOZI (translation regulation), blasticidin S-deaminase (selection marker) and a Renilla luciferase (RLuc) reporter. All primer and synthetic fragment sequences that were generated using the BioXP™ system and IDT gBlocks™ are included in Supplementary Table 9. The final constructs were sequence-verified and further confirmed by restriction digests.
(§2) Transfection into Cas9- and T7 RNA polymerase-expressing NF54 parasites was carried out by pre-loading red blood cells (RBCs) with the donor vector[61]. […] Cultures were monitored by Giemsa smears and RLuc measurements.
(§3) DMSO- and dihydroartemisinin-treatment (0.5 µM) served as reference controls.

[2] = test system: PfGlyRS cKD P. falciparum line; conditions: for Growth: PfGlyRS K/D; for pIC50: PfGlyRS line, individual repeats
Source text: as §1, §2, §3

[3] = test system: PfCA cKD P. falciparum line; conditions: for Growth: PfCA K/D
Source text: as §1, §2, §3

[4] = test system: P. falciparum Dd2-B2 clone; conditions: Plasmodium falciparum, DD2
Source text: Wells were monitored daily by smear during the first 7 days to ensure parasite clearance, during which media was changed daily. […] Whole-genome sequencing analysis employed MiSeq data from libraries of 2 × 300 bp paired end reads.

[5] = Plasmodium falciparum, 1 nM, […] aTc or no aTc
[6] = Plasmodium falciparum, 500 nM aTc

Nc1ncnc2cc(-c3cccc(S(N)(=O)=O)c3)sc12 [OSM-S-106] was tested, and the “growth after 72 h exposure, normalised to no drug” value (“growth … normalised to no drug” for short) ([1]; 500 nM aTc, 3.90625 nM) was 110.366 and 98.6162 and 100.564, the “growth … normalised to no drug” value ([1]; 500 nM aTc, 7.8125 nM) was 101.389 and 100.305 and 97.246 and the “growth … normalised to no drug” value ([1]; 500 nM aTc, 31.25 nM) was 11.2119 and 13.2391 and 14.7628. The “growth … normalised to no drug” value ([1]; 500 nM aTc, 62.5 nM) was 1.785 and 2.763 and 1.994, the “growth … normalised to no drug” value ([1]; 500 nM aTc, 125 nM) was 0.2373 and 0.4204 and 0.2459 and the “growth … normalised to no drug” value ([1]; 500 nM aTc, 250 nM) was 0.2337 and 0.2689 and 0.2037. For the same molecule, the “growth … normalised to no drug” value ([1]; no aTc, 0.488281 nM) was 115.9 and 108.506 and 115.265, the “growth … normalised to no drug” value ([1]; no aTc, 0.976562 nM) was 107.637 and 104.459 and 111.884 and the “growth … normalised to no drug” value ([1]; no aTc, 1.95312 nM) was 103.621 and 102.992 and 106.407. The “growth … normalised to no drug” value ([1]; no aTc, 3.90625 nM) was 93.8123 and 99.6909 and 104.029, the “growth … normalised to no drug” value ([1]; no aTc, 7.8125 nM) was 30.4373 and 37.6726 and 51.4607 and the “growth … normalised to no drug” value ([1]; no aTc, 31.25 nM) was 0.5987 and 0.9711 and 0.5614. The “growth … normalised to no drug” value ([1]; no aTc, 62.5 nM) was 0.1353 and 0.2821 and 0.05072, the “growth … normalised to no drug” value ([1]; no aTc, 125 nM) was 0.1322 and 0.3476 and 0.0472 and the “growth … normalised to no drug” value ([1]; no aTc, 250 nM) was 0.1415 and 0.3214 and 0.1916. For the same molecule, the pIC50 ([1]; 500 nM aTc) was 7.69 and 7.67, the pIC50 [1, 5] was 8.22 and the pIC50 [1, 6] was 7.70. For the same molecule, the Growth ([2]; 3.125 nM OSM-S-106, 500 nM aTc) was 112.465 and 111.772 and 85.4538, the Growth ([2]; 6.25 nM OSM-S-106, 500 nM aTc) was 122.27 and 121.35 and 91.2762 and the Growth ([2]; 12.5 nM OSM-S-106, 500 nM aTc) was 106.05 and 112.162 and 76.632. The Growth ([2]; 100 nM OSM-S-106, 500 nM aTc) was 9.878 and 6.142 and 8.685, the Growth ([2]; 200 nM OSM-S-106, 500 nM aTc) was 7.891 and 8.53 and 4.96 and the pIC50 ([2]; 1 nM, […] aTc or no aTc) was 7.39. It also gave a pIC50 ([2]; 500 nM aTc) of 7.43, a pIC50 [2, 5] of 7.40 and a pIC50 [2, 6] of 7.41. The Growth ([3]; 3.125 nM OSM-S-106, 500 nM aTc) was 126.787 and 158.672 and 147.974, the Growth ([3]; 3.125 nM OSM-S-106, no aTc) was 126.423 and 113.544 and 101.394 and the Growth ([3]; 6.25 nM OSM-S-106, 500 nM aTc) was 92.3654 and 131.4 and 126.99. The Growth ([3]; 6.25 nM OSM-S-106, no aTc) was 110.949 and 103.392 and 134.667, the Growth ([3]; 12.5 nM OSM-S-106, 500 nM aTc) was 103.771 and 150.344 and 136.72 and the Growth ([3]; 12.5 nM OSM-S-106, no aTc) was 107.898 and 113.66 and 101.587. For the same molecule, the Growth ([3]; 25 nM OSM-S-106, 500 nM aTc) was 66.7109 and 104.005 and 106.363, the Growth ([3]; 25 nM OSM-S-106, no aTc) was 55.2693 and 67.1039 and 67.9395 and the Growth ([3]; 50 nM OSM-S-106, 500 nM aTc) was 39.8979 and 23.9771 and 45.5735. The Growth ([3]; 50 nM OSM-S-106, no aTc) was 31.2463 and 15.9234 and 30.4793, the Growth ([3]; 100 nM OSM-S-106, 500 nM aTc) was 11.4398 and the Growth ([3]; 100 nM OSM-S-106, no aTc) was 10.8379 and 9.475 and 12.418. The Growth ([3]; 200 nM OSM-S-106, 500 nM aTc) was 5.818 and 8.3279 and 9.44, the Growth ([3]; 200 nM OSM-S-106, no aTc) was 6.983 and 9.353 and 10.7306 and the Growth ([3]; 400 nM OSM-S-106, no aTc) was 0.8215 and 0.8297 and 1.231. For the same molecule, the pIC50 ([3]; PfCA line, 500 nM aTc, individual repeats) was 7.50 and 7.43, the pIC50 ([3]; Plasmodium falciparum, PfCA line, 1 nM, […] aTc or no aTc, individual repeats) was 7.64 and the pIC50 ([3]; Plasmodium falciparum, PfCA line, 500 nM aTc, individual repeats) was 7.53. It also gave a pIC50 ([3]; Plasmodium falciparum, read-out: Mean IC50 with 500 nM aTc, PfCA line, 500 nM aTc) of 7.48, a pIC50 ([3]; Plasmodium falciparum, read-out: Mean IC50 with low (1 or […])/ no aTc, PfCA knockdown, no aTc) of 7.59 and a pIC50 [4] of 7.05. For the same molecule, the IC90 [4] was 169 nM.
